Data published in patent US20260216347A1, “Substituted Imidazo-Based Compounds as Ligand Directed Degraders of IRAK3” (Celgene Corporation, priority 2022, published 2026).

Tests used:
IRAK3-ePL = biological target: T1, IRAK3-ePL (Homo sapiens, UniProt Q9Y616); test: IRAK3-ePL overexpressing degradation assay (InCELL Hunter luminescence, dose response); format: cell-based; conditions: for IRAK3 ePL degradation Ymin: lowest percentage of target protein remaining following compound treatment; for DC50: read-out: IRAK3 ePL degradation EC50
T1 construct: expressed in transfected cells; host or cells: 293T CRBN OE/GSPT1 G575N KI cells, lentiviral transduction, puromycin selected
Description: Example B1. IRAK3-ePL Overexpressing Degradation Assay
Stable cell lines were generated by the following protocol. 3×10^5 Lenti-X 293T cells (Clonetech) were plated in 0.8 mL of media in a 12-well plate and incubated overnight at 37° C./5% CO2. Packaging plasmid (0.4 μg, pMD), envelope plasmid (0.4 μg, pSP), and lentiviral transfer IRAK3-ePL plasmid (0.8 μg, TRAK3 sequence NM_007199.3) were mixed in 0.1 mL of Opti-MEM and incubated for 5 min. Simultaneously, 2.4 μL of Lipofectamine 2000 (Invitrogen) was added to 0.1 mL of Opti-MEM (Gibco) and incubated for 5 min. The plasmid DNA and lipofectamine were combined and the mixture was allowed to incubate for 20 min.DNA:Lipofectamine Opti-MEM mixtures were then added to previously plated cells dropwise and the cells were incubated for ~16 h at 37° C./5% CO2. Following incubation, the media was removed and 1.2 mL of fresh media was added per well. Lenti-X 293T cells were incubated for ~30 h at 37° C./5% CO2. […] Following incubation, media was removed from the Lenti-X 293T wells and passed through a […] filter. Part of the viral supernatant was used to transduce cells and the rest was stored at −80° C. Viruses were then added individually (0.5 mL virus) to each well of the 293T^CRBN OE/GSPT1 G575N KI cells, followed by addition of polybrene (10 mg/mL Millipore) to each well at a final concentration of 5.0 μg/mL. Cells were incubated for ~24 h at 37° C./5% CO2. After aspirating media off plates, cells were washed with DPBS, trypsinized and plated in a 10 cm dish in 15 mL of media and […] puromycin. Following incubation of cells for ~72 h at 37° C./5% CO2, media was aspirated off plates, and cells were washed with DPBS and trypsinized. The cells were plated in a 15 cm dish in 40 mL of media with 1.0 μg/mL Puromycin (Gibco) and incubated for ~72 h at 37° C./5% CO2. Following incubation, media was removed and cells were washed with DPBS and trypsinized. The majority of cells were resuspended in Invitrogen freezing media and stored away (~6-8×10^6 cells/vial).
IRAK3-ePL cellular dose response curve degradation assays were performed by the following protocol. Compounds to be tested were dispensed into a white 384-well tissue-culture treated plate using an acoustic liquid handler. Dilutions were prepared based on a 25 μL assay volume in duplicate 10 point 3-fold serial dilutions starting with a 10 μM dose. Negative control wells were included, which only contain 0.2% DMSO to calculate 100% signal. Positive control wells containing 30 μM Ataluren (luciferase inhibitor) were included to calculate the background signal level. All wells were backfilled to a final DMSO concentration of 0.2% to ensure DMSO uniformity across wells. IRAK3-ePL expressing cells (IRAK3-ePL Lenti-X 293T^CRBN/GSPT1 G575N) were washed, trypsinized, counted, and resuspended in fresh DMEM (Gibco) to give a cell concentration of 200,000 cells/mL. 25 μL of cells (5,000 cells/well) were dispensed into the wells of the 384-well plate prespotted with compounds in the previous step and incubated overnight at 37° C./5% CO2. Following incubation, the 384-well plate was taken out of the incubator and left at room temperature for 30 min. InCELL hunter reagent was prepared according to manufacturer's instructions (EA reagent, lysis buffer, and substrate reagent in a 1:1:4 ratio, Cat #96-0002, DiscoverX), which was added to the 384-well plate 25 μL per well. Following the incubation of the plate for 1 h at room temperature, the luminescence signal was read using a ViewLux plate reader. Data was processed and analyzed in ActivityBase software. In short, the average luminescence values of the positive control wells were subtracted from the rest of the wells for background correction, and all luminescence values were normalized to the DMSO control wells. The average value of the DMSO control wells was set to equal 100% of the relative IRAK3-ePL protein levels. […]

IRAK3 = biological target: T2, IRAK3 (Homo sapiens, UniProt Q9Y616); test: IRAK3 biochemical binding assay (LanthaScreen Eu Kinase Binding, TR-FRET)
T2 construct: IRAK Endogenous HTRF Degradation Assay; endogenous in cells
T2 sequence (Q9Y616 1-596): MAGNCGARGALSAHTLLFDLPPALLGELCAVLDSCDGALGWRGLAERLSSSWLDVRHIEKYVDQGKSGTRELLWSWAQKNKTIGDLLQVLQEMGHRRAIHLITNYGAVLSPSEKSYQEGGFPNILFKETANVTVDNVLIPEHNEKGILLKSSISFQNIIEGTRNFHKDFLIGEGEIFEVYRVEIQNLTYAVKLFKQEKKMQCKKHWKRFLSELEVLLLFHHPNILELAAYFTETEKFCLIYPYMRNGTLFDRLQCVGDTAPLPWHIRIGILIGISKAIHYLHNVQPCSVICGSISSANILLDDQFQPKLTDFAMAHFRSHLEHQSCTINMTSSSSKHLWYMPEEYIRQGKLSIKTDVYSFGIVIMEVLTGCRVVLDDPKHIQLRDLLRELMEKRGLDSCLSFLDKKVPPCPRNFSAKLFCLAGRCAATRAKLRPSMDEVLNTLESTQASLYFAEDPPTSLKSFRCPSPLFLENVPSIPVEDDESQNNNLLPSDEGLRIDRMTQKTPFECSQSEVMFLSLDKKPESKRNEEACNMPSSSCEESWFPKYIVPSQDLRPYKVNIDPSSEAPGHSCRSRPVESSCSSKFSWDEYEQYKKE
Description: Example B3. IRAK3 Biochemical Binding Assay
The LanthaScreen® Eu Kinase Binding assay was performed as described by the vendor (ThermoFisher Scientific Waltham, MA). Briefly, 100× solutions of compound were prepared in DMSO via serial dilution of the 10 mM stock solution in a 384-well reagent plate using 3-fold intervals to achieve final concentrations. 1 μL of the compound dilution series were added to the corresponding wells of a 384-well reagent plate containing 32.3 μL of 1× buffer (50 mM HEPES pH 7.4, […], 1 mM EGTA, 0.01% Brij-35). 5 μL of the buffer diluted compounds were transferred to the corresponding wells of a 384-well assay plate. 5 μL of 3× tracer was transferred to each well of the assay plate for a final tracer concentration of 10 nM. Finally, 5 μL of the 3×Eu-Anti-GST and IRAK3 mix was transferred to each well for a final concentration of 2 nM and 10 nM respectively. Reactions were allowed to incubate for 1 hour at room temperature. TR-FRET signal of the interaction (λex340/λem 665/λem 615) was read at room temperature with a delay time of 100 ρs and an integration time of 200 ρs using an Envision plate reader. Background corrected emission signal ratios at each compound concentration were used to calculate percentage of inhibition (% Inhibition). Plots of % Inhibition versus inhibitor concentrations were fit according to a dose-response equation (Eq. 1) to generate IC50 and Hill slope values using Dotmatics software (Dotmatics, Bishops Stortford, Hertfordshire, England).
Using these assays, IC50, Dmax, EC50, and DC50 values of the following compounds were determined. Dmax is defined as the maximum percent degradation achieved and DC50 is the concentration at which 50% degradation is achieved.

| IRAK3 ePL degradation Ymin (IRAK3-ePL) [%] | DC50 (IRAK3-ePL) [nM] | IC50 (IRAK3) [nM] | SMILES |
| --- | --- | --- | --- |
| 14 | 1 | 5.9 | Cc1cccc(-c2cnc(Nc3cnn(C4CCN(CCN5CCN(c6ccc(C7CCC(=O)NC7=O)cc6)CC5)CC4)c3)c3nccn23)c1 (stereo not shown) [Compound 5, 3-(4-(4-(2-(4-(4-((5-(m-tolyl)imidazo[1,2-a]pyrazin-8-yl)amino)-1H-pyrazol-1-yl)piperidin-1-yl)ethyl)piperazin-1-yl)phenyl) piperidine-2,6-dione] |
| 15 | 0.51 | 6.4 | O=C1CCC(c2ccc(N3CCN(CCN4CCC(n5cc(Nc6ncc(-c7ccc8c(c7)NC(=O)CO8)n7ccnc67)cn5)CC4)CC3)cc2)C(=O)N1 (stereo not shown) [Compound 15, 3-(4-(4-(2-(4-(4-((5-(3-oxo-3,4-dihydro-2H-benzo[b][1,4]oxazin-6-yl)imidazo[1,2-a]pyrazin-8-yl)amino)-1H-pyrazol-1-yl)piperidin-1-yl)ethyl)piperazin-1-yl)phenyl) piperidine-2,6-dione] |
| 16 | 0.77 | 2.9 | Cc1cccc(-c2cnc(Nc3cnn(C4CCN(CC(=O)N5CCN(c6ccc(C7CCC(=O)NC7=O)cc6)CC5)CC4)c3)c3nccn23)c1 (stereo not shown) [Compound 20, 3-(4-(4-(2-(4-(4-((5-(m-tolyl)imidazo[1,2-a]pyrazin-8-yl)amino)-1H-pyrazol-1-yl)piperidin-1-yl)acetyl)piperazin-1-yl)phenyl)piperidine-2,6-dione] |
| 23 | 1.4 | 36 | C[C@@H]1CN(c2ccc(C3CCC(=O)NC3=O)cc2)CCN1CCN1CCC(n2cc(Nc3ncc(C4CC4)n4ccnc34)cn2)CC1 (stereo partly drawn) [Compound 32, 3-(4-((R)-4-(2-(4-(4-((5-cyclopropylimidazo[1,2-a]pyrazin-8-yl)amino)-1H-pyrazol-1-yl)piperidin-1-yl)ethyl)-3-methylpiperazin-1-yl)phenyl) piperidine-2,6-dione] |
| 23 | 1.7 | 1.5 | Cc1cc(-c2cnc(Nc3cnn([C@H]4CCN(CCN5CCN(c6ccc(C7CCC(=O)NC7=O)cc6)C[C@@H]5C)[C@@H](C)C4)c3)c3nccn23)c(F)cc1F (stereo partly drawn) [Compound 34, 3-(4-((S)-4-(2-((2S,4S)-4-(4-((5-(2,4-difluoro-5-methylphenyl)imdazo [1,2-a]pyrazin-8-yl)amino)-1H-pyrazol-1-yl)-2-methylpiperidin-1-yl)ethyl)-3-methylpiperazin-1-yl)phenyl) piperidine-2,6-dione] |
| 29 | 5.5 | 27 | Cc1ccc(-c2cnc(Nc3cnn(C4CCN(CCN5CCN(c6ccc(C7CCC(=O)NC7=O)cc6)CC5)CC4)c3)c3nccn23)cc1 (stereo not shown) [Compound 78, 3-(4-(4-(2-(4-(4-((5-(p-tolyl)imidazo[1,2-a]pyrazin-8-yl)amino)-1H-pyrazol-1-yl)piperidin-1-yl)ethyl)piperazin-1-yl)phenyl) piperidine-2,6-dione] |
| 29 | 29 | 260 | Cc1ccccc1-c1cnc(Nc2cnn(C3CCN(CCN4CCN(c5ccc(C6CCC(=O)NC6=O)cc5)CC4)CC3)c2)c2nccn12 (stereo not shown) [Compound 79, 3-(4-(4-(2-(4-(4-((5-(o-tolyl)imidazo[1,2-a]pyrazin-8-yl)amino)-1H-pyrazol-1-yl)piperidin-1-yl)ethyl)piperazin-1-yl)phenyl) piperidine-2,6-dione] |
| – | – | 1 | Cc1cc(-c2cnc(Nc3cnn([C@H]4CC[C@H](CCN5CCN(c6cccc7c(C8CCC(=O)NC8=O)nn(C)c67)CC5)CC4)c3)c3nccn23)c(F)cc1F (stereo partly drawn) [Compound 117, 3-(7-(4-(2-((trans)-4-(4-((5-(2,4-difluoro-5-methylphenyl)imidazo[1,2-a]pyrazin-8-yl)amino)-1H-pyrazol-1-yl)cyclohexyl)ethyl)piperazin-1-yl)-1-methyl-1H-indazol-3-yl)piperidine-2,6-dione] |
| – | – | 0.1 | O=C1CCC(c2ccc(N3CCN(CC[C@H]4CC[C@H](n5cc(Nc6ncc(-c7cnn8c7CCCC8)n7ccnc67)cn5)CC4)CC3)cc2)C(=O)N1 (stereo partly shown) [Compound 118] |
| – | – | 1.7 | O=C1CCC(c2ccc(N3CCN(CCN4CCC(n5cc(Nc6ncc(-c7cnn(C8CC8)c7)n7ccnc67)cn5)CC4)CC3)cc2)C(=O)N1 (stereo not shown) [Compound 119, 3-(4-(4-(2-(4-(4-((5-(1-cyclopropyl-1H-pyrazol-4-yl)imidazo[1,2-a]pyrazin-8-yl)amino)-1H-pyrazol-1-yl)piperidin-1-yl)ethyl)piperazin-1-yl)phenyl) piperidine-2,6-dione] |
| – | – | 1.5 | O=C1CCC(c2ccc(N3CCN(CC[C@H]4CC[C@H](n5cc(Nc6ncc(-c7cn[nH]c7)n7ccnc67)cn5)CC4)CC3)cc2)C(=O)N1 (stereo partly drawn) [Compound 120, 3-(4-(4-(2-((trans)-4-(4-((5-(1H-pyrazol-4-yl)imidazo[1,2-a]pyrazin-8-yl)amino)-1H-pyrazol-1-yl)cyclohexyl)ethyl)piperazin-1-yl)phenyl) piperidine-2,6-dione] |
